The results in this text go back to ChEMBL document CHEMBL1201862, “PubChem BioAssay data set” (2004).

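Where inhibition never reached the appropriate level, the endpoint shown equals the highest concentration tested. Otherwise, values were interpolated linearly from a five-concentration, 48-hour dose response in 96-well plates. GI50 = concentration required for 50% inhibition of growth.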 The source made the active and inactive calls. No stated cut-off is given here; in the data, active = GI50 up to about 1.1 µM and inactive = higher.

Some test systems named below: NCI-H460; MDA-MB-231; KM12; SN12C; SF-539; LOX IMVI; ACHN; COLO 205; HCT-15; EKVX; MCF7; DU-145; UO-31; OVCAR-5; HOP-92; SF-268; RPMI-8226; HCC 2998; SW-620.
Assay in all cases: NCI anticancer screen, dose series, 48 h

On to `O=C(CC1(O)CCCCC1)OC1CCCC1`, for which the GI50 with NCI-H460, in the assay on MDA-MB-231, in the assay on KM12, with SN12C, with SF-539 and in the assay on LOX IMVI was > 100 µM (inactive) each time. Moreover, the GI50 with ACHN is > 100 µM (inactive); in the assay on COLO 205, > 100 µM (inactive); with HCT-15 it was above 100 µM; in the assay with EKVX it was > 100 µM (inactive); in the assay with MCF7, > 100 µM (inactive); with DU-145 it was > 100 µM (inactive). Besides, the GI50 with UO-31, in the assay on OVCAR-5, in the assay on HOP-92 and with SF-268 was > 100 µM (inactive) each time.

`O=C(N/N=C\c1ccc([N+](=O)[O-])cc1)c1ccccc1Nc1ccccc1C(=O)N/N=C/c1ccc([N+](=O)[O-])cc1`: the GI50 in the assay on NCI-H460 was > 100 µM (inactive); in the assay with MDA-MB-231, 25.8 µM (inactive); with KM12, > 100 µM (inactive); in the assay on SN12C, > 100 µM (inactive); with RPMI-8226, > 100 µM (inactive); with ACHN, > 100 µM (inactive). For the same compound, the GI50 was > 100 µM (inactive) with COLO 205; > 100 µM (inactive) in the assay on HCC 2998; above 100 µM with HCT-15; > 100 µM (inactive) in the assay with EKVX; > 100 µM (inactive) in the assay with MCF7; > 100 µM (inactive) in the assay on DU-145. The GI50 is > 100 µM (inactive) in the assay with UO-31; 76.4 µM (inactive) with OVCAR-5; > 100 µM (inactive) in the assay with SW-620; > 100 µM (inactive) in the assay on HOP-92; > 100 µM (inactive) with SF-268.

`O=c1c2ccccc2nc2[nH][nH]c(=S)n12`: the GI50 in the assay with NCI-H460, with MDA-MB-231, with KM12, in the assay with SN12C, in the assay with RPMI-8226 and with SF-539 was > 100 µM (inactive) each time. The GI50 is > 100 µM (inactive) in the assay with LOX IMVI; > 100 µM (inactive) in the assay on ACHN; > 100 µM (inactive) in the assay on COLO 205; above 100 µM in the assay with HCT-15; 83.6 µM (inactive) with EKVX; > 100 µM (inactive) in the assay with MCF7. Also, the GI50 in the assay on DU-145, in the assay with UO-31, in the assay on OVCAR-5, in the assay with SW-620, with HOP-92 and in the assay on SF-268 was > 100 µM (inactive) each time.

Take `Nc1ccc(-c2nc3ccccc3s2)cc1C#Cc1ccccc1`: the GI50 in the assay on NCI-H460 is 17 µM (inactive); with MDA-MB-231, 19.7 µM (inactive); in the assay on KM12, 16.7 µM (inactive); in the assay with SN12C, 18.8 µM (inactive); in the assay on RPMI-8226, 20.9 µM (inactive); with SF-539, 18.2 µM (inactive). Besides, the GI50 with LOX IMVI is 19 µM (inactive); with ACHN, 18.8 µM (inactive); in the assay on COLO 205 it was 16.3 µM (inactive); in the assay with HCT-15 it was 17.9 µM; with EKVX, 20.7 µM (inactive); with MCF7, 1.59 µM (inactive). Also, the GI50 in the assay on DU-145 was 23.8 µM (inactive); with UO-31, 18.3 µM (inactive); in the assay on OVCAR-5, 27.2 µM (inactive); in the assay on SW-620 it was 17.8 µM (inactive); in the assay on HOP-92 it was 18.8 µM (inactive); in the assay with SF-268, 21.1 µM (inactive).

As to `CC1C2CC(CC2=O)C1(C)C` (centres undefined), the GI50 with NCI-H460, in the assay with MDA-MB-231, in the assay on KM12, in the assay with SN12C, in the assay on SF-539 and in the assay with ACHN was > 100 µM (inactive) throughout. For the same compound, the GI50 in the assay with COLO 205, in the assay on HCC 2998, in the assay with EKVX, with MCF7, in the assay with DU-145 and with UO-31 was > 100 µM (inactive) each time. The GI50 with OVCAR-5, with SW-620, in the assay with HOP-92 and with SF-268 was > 100 µM (inactive) in each case.

`Cn1c(=O)c2c([nH]/c(=N/N=C/c3ccccc3C(=O)O)n2C)n(C)c1=O`: the GI50 in the assay with NCI-H460, with MDA-MB-231, in the assay on KM12, with SN12C, in the assay on RPMI-8226 and in the assay with SF-539 was > 100 µM (inactive) in each case. Besides, the GI50 in the assay with LOX IMVI is > 100 µM (inactive); with ACHN, > 100 µM (inactive); in the assay with COLO 205 it was > 100 µM (inactive); in the assay on HCT-15, above 100 µM; in the assay on EKVX, > 100 µM (inactive); with MCF7, > 100 µM (inactive). Moreover, the GI50 with DU-145, in the assay with UO-31, in the assay on OVCAR-5, in the assay with SW-620, with HOP-92 and in the assay with SF-268 was > 100 µM (inactive) each time.

As for `COC1OC(Cn2cc([N+](=O)[O-])nc2C)C(O)C(O)C1O` (centres undefined), the GI50 in the assay on NCI-H460, in the assay on MDA-MB-231, with KM12, in the assay on RPMI-8226, in the assay on ACHN and in the assay on COLO 205 was > 100 µM (inactive) in each case. Besides, the GI50 is > 100 µM (inactive) in the assay on HCC 2998; above 100 µM with HCT-15; > 100 µM (inactive) with EKVX; > 100 µM (inactive) with MCF7; > 100 µM (inactive) in the assay on DU-145; > 100 µM (inactive) in the assay on UO-31. Besides, the GI50 with OVCAR-5, in the assay on SW-620 and in the assay with HOP-92 was > 100 µM (inactive) throughout.

With `C=C(Br)C(Cl)(CBr)CCC(Br)C(C)(C)Cl` (centres undefined), the GI50 with MDA-MB-231 is > 10 µM (inactive); in the assay with KM12, > 10 µM (inactive); with SN12C it was > 10 µM (inactive); in the assay with RPMI-8226 it was 9.2 µM (inactive); in the assay with SF-539 it was > 10 µM (inactive); with ACHN, > 10 µM (inactive). The GI50 with COLO 205 is > 10 µM (inactive); in the assay with HCC 2998, > 10 µM (inactive); in the assay on EKVX it was > 10 µM (inactive); with MCF7 it was 7.83 µM (inactive); in the assay with DU-145, > 10 µM (inactive); in the assay with UO-31, > 10 µM (inactive). The GI50 in the assay with OVCAR-5, with SW-620, with HOP-92 and in the assay on SF-268 was > 10 µM (inactive) in each case.

`CCN(CC)CCn1c2cc3c(cc2c(=O)c2cccnc21)OCCO3`: the GI50 is 9.51 µM (inactive) in the assay on MDA-MB-231; > 10 µM (inactive) in the assay with KM12; 9.71 µM (inactive) with SN12C; > 10 µM (inactive) with RPMI-8226; > 10 µM (inactive) in the assay with SF-539; 4.99 µM (inactive) in the assay with ACHN. For the same compound, the GI50 in the assay with COLO 205 was > 10 µM (inactive); in the assay with HCC 2998, 6.4 µM (inactive); in the assay with HCT-15 it was above 10 µM; with EKVX, > 10 µM (inactive); in the assay with MCF7, 7.82 µM (inactive); in the assay on DU-145, > 10 µM (inactive). Further, the GI50 with SW-620 is 5.28 µM (inactive); in the assay with HOP-92, > 10 µM (inactive); in the assay with SF-268, > 10 µM (inactive).
